Consider 1 compound from US10813944B2, “Cyclodextrins as procoagulants” (STICHTING SANQUIN BLOEDVOORZIENING, priority 2016, dated 2020).

The test system of test [1] is thrombin generation in pooled normal plasma spiked with anticoagulants. The test can be described thus: Thrombin generation assay in pooled normal plasma spiked with anticoagulants. In kind it is biochemical, human. The following applies: 1 pM TF. The essentials:
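Pooled normal plasma spiked with cyclodextrins or OKL-1111 (typically 100 μM) plus anticoagulants at fixed levels (e.g., dabigatran, rivaroxaban 100 ng/ml; apixaban, edoxaban 60 ng/ml). Calibrated Automated Thrombogram triggered by recalcification with 1 pM tissue factor, 4 μM phospholipids and 417 μM Z-Gly-Gly-Arg-AMC; lag time, peak, velocity index and ETP derived.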

Test [2] deals with normal human plasma pretreated with inhibitory antibodies against factor XI. The test can be described thus: Thrombin generation in normal plasma spiked with inhibitory antibodies against factor XI. In kind it is biochemical. The following applies: mix of #203 and #175, 75 μg/ml; 1 pM TF. The method, then:
The Calibrated Automated Thrombogram® assays the generation of thrombin in clotting plasma using a microtiter plate reading fluorometer (Fluoroskan Ascent, ThermoLab systems, Helsinki, Finland) and Thrombinoscope® software (Thrombinoscope BV, Maastricht, The Netherlands). The assay was carried out as described by Hemker et al. (Pathofysiol. IIaemost. Thromb. 2003, 33, 4-15), and the Thrombinoscope® manual. Coagulation was triggered by recalcification in the presence of 1 or 5 pM recombinant human tissue factor (Innovin®, Siemens, Marburg, Germany), 4 μM phospholipids, and 417 μM fluorogenic substrate Z-Gly-Gly-Arg-AMC (Bachem, Bubendorf, Switzerland). Fluorescence was monitored using the Fluoroskan Ascent fluorometer (ThermoLabsystems, Helsinki, Finland), and the lag time, peak thrombin, velocity index and area under the curve (ETP) were calculated using the Thrombinoscope® software (Thrombinoscope BV).
Normal plasma was spiked with inhibitory antibodies against factor VIII (Sanquin, VK34, 14 μg/ml), factor IX (Sanquin, 5F5, 20 μg/ml) or factor XI (Sanquin, mix of #203 and #175, 75 μg/ml). The effect of OKL-1111 was tested in thrombin generation assay using 1 pM tissue factor (TF). This model is representative for hemophilia A, B and C patients that have developed inhibitory antibodies against plasma-derived or recombinant factor VIII or IX or XI they are treated with.

Test [3] relates to mice anticoagulated with rivaroxaban. The test can be described thus: In vivo saphenous vein bleeding model in mice anticoagulated with rivaroxaban. The following applies: mice fed rivaroxaban for 4 days; cyclodextrin by tail vein injection 5 min before bleeding assay; OKL-1111 dose expected to give 25 μM in plasma. On the procedure: FIG. 29: In vivo analysis of procoagulant potential of OK-1111 and OKL-1147. Except for controls, animals were treated with rivaroxaban for 4 days and cyclodextrins were administered 5 min prior bleeding assay.
All animal protocols were approved by the Institutional Animal Care and Use Committee of the University of North Carolina. C57BL6/J mice were purchased from Charles Rivers Laboratories (Willmington, Mass.). Bleeding studies were done essentially as previously described Pastoft et al. (Haemophilia 2012; 18:782-8). Mice were anesthetized with isoflurane throughout all procedures. The hair on the ventral side of both hind limbs was removed. The animals were placed supine on a temperature and ECG monitoring board. The paws were gently restrained by looping soft polyethylene tubing around them and attaching the tubing to the ECG board. The skin on the left and right ventral hind limb was incised which exposes a length of the saphenous neurovascular bundle; the bundle was covered with normal saline to prevent drying. To assess haemostasis, the right saphenous vein was transected by piercing it with a 23-G needle followed by a longitudinal incision made in the distal portion of the vessel. Blood was gently wicked away until haemostasis occurred. The clot was then removed to restart bleeding and the blood was again wicked away until haemostasis occurs again. Clot disruption was repeated after every incidence of haemostasis for 30 minutes. Mice were fed chow that contained 0.1 mg rivaroxaban per g of chow. The mice were on this diet for 4 days to allow them to reach a steady state. Cyclodextrins were administered by a tail vein injection 5 minutes before the start of the bleeding assay. Two parameters were measured: 1) the number of times that haemostasis occurs in a 30 minute period, and 2) the time required for each haemostasis.

On to `O=C(O)CCCCCSCC1OC2OC3C(CSCCCCCC(=O)O)OC(OC4C(CSCCCCCC(=O)O)OC(OC5C(CSCCCCCC(=O)O)OC(OC6C(CSCCCCCC(=O)O)OC(OC7C(CSCCCCCC(=O)O)OC(OC8C(CSCCCCCC(=O)O)OC(OC9C(CSCCCCCC(=O)O)OC(OC1C(O)C2O)C(O)C9O)C(O)C8O)C(O)C7O)C(O)C6O)C(O)C5O)C(O)C4O)C(O)C3O` (centres unmarked) [OKL-1111], for which the “restoring thrombin generation in plasma anticoagulated with unfractionated heparin” value in test [1] (UFH 0.03 U/ml, OKL-1111 100 μM) is “capable of restoring thrombin generation”. For the same compound, in test [1] (apixaban 60 ng/ml, cyclodextrin 100 μM), the “effect on the anticoagulant effect of apixaban” value is on record as “restoration of thrombin generation to levels far above that of non-anticoagulated plasma”. Also, in test [1] (bivalirudin 10 μg/ml, OKL-1111 100 μM), the “restoring thrombin generation in plasma anticoagulated with bivalirudin” value is reported as “capable of restoring thrombin generation”. Also, the “effect on the anticoagulant effect of dabigatran” value in test [1] (dabigatran 100 ng/ml, cyclodextrin 100 μM) was “restoration of thrombin generation to levels far above that of non-anticoagulated plasma”. Besides, the “effect on the anticoagulant effect of edoxaban” value in test [1] (edoxaban 60 ng/ml, cyclodextrin 100 μM) was “restoration of thrombin generation to levels far above that of non-anticoagulated plasma”. The “restoring thrombin generation in plasma anticoagulated with pentasaccharide (arixtra)” value in test [1] (fondaparinux 2 μg/ml, OKL-1111 100 μM) is “capable of restoring thrombin generation”. Further, the “restoring thrombin generation in plasma anticoagulated with hirudin” value in test [1] (hirudin 0.5 U/ml, OKL-1111 100 μM) is on record as “capable of restoring thrombin generation”. In test [1] (nadroparin 0.4 U/ml, tinzaparin 0.1 U/ml, OKL-1111 100 μM), the “restoring thrombin generation in plasma anticoagulated with low molecular weight heparin” value is “capable of restoring thrombin generation”. For the same compound, the “effect on the anticoagulant effect of rivaroxaban” value in test [1] (rivaroxaban 100 ng/ml, cyclodextrin 100 μM) is given as “restoration of thrombin generation to levels far above that of non-anticoagulated plasma”. Moreover, the “thrombin generation in plasma with inhibitory antibodies against factor XI” value in test [2] was “concentration-dependently stimulated thrombin generation”. Further, the clotting times entry in test [3] is listed as “normalization of the clotting times”.
